Laboratory results reported in patent publication US10336702B2, “Pharmaceutically active compounds” (BERGENBIO ASA, priority 2015, dated 2019).

What was measured:
[1] = tested on: TNBC cell line MDA-MB-231; assay: 3D tumour cell growth in matrigel; type: cell-based; conditions: MDA-MB-231 in matrigel, increasing concentrations, 9 days, DMSO control
Procedure: MDA-MD-231 cells were treated with increasing concentrations of EX34 or EX33 for 9 days. Treatment was initiated one day after tumour cell seeding. DMSO was used as control. The graphs in FIG. 2 show average tumour size±SEM following treatment with each of EX34 and EX33. Images of the 3D cultures were batch analysed with AMIDA software.
In order to evaluate the role of Akt3 in tumour cell growth and invasion, the effect of two compounds of the invention, the compound of Example 34 (denoted hereafter as EX34) and the compound of Example 33 (denoted hereafter as EX33), on 3D growth in matrigel was assessed.
The TNBC cell line MDA-MB-231 was seeded in matrigel and the cell cultures were treated with increasing concentrations of EX34 or EX33 for 9 days. Treatment was initiated one day after tumour cell seeding. DMSO was used as control. The average tumour sphere size was then evaluated for each treatment. Representative pictures are shown in FIG. 1 for each of the indicated treatment conditions.
Images of the 3D cultures were batch analysed with AMIDA software to quantify the 3D tumour sphere size.

[2] = tested on: MDA-MB-231-D3H2LN/GPF-Luc cells; assay: Invasive 3D tumour cell growth in matrigel; type: cell-based; conditions: 2 μM, 72 hours, fluorescence microscopy
Procedure: The TNBC aggressive cell line MDA-MB-231-D3H2LN/GPF-Luc was seeded in matrigel on cover slides to obtain invasive 3D tumour cell colonies. Cell cultures were treated for 72 hours with DMSO (control), 2 μM EX34 or 2 μM EX33, and colonies were evaluated by fluorescence microscopy for 3D invasive growth.

Akt3 in MDA-MB-231 cells = assay: Cellular (nuclear) localization of Akt3 by immune fluorescence microscopy; type: cell-based; conditions: 2 μM, 36 hours
Procedure: FIGS. 4 and 5 refer to the cellular localization of Akt3 in MDA-MB-231 cells that were treated for 36 hours with EX33 or EX34. In FIG. 4, cells were stained to visualize the nucleus (top left panel) and Akt3 (top right panel) and analyzed using immune fluorescence microscopy. […] The results were obtained using TissueQuest Software.
The cellular program of epithelial to mesenchymal transition (EMT) is utilized by tumour cells to develop drug resistance and to metastasize. Nuclear translocation of Akt3 is considered crucial for Akt3's ability to phosphorylate SNAIL and induce EMT.
MDA-MB-231 cells were treated for 36 hours with Vehicle (DMSO) or 2 μM EX34. Cells were stained to visualize the nucleus and Akt3. […] Mean intensity of Akt3 in the nucleus was evaluated after treatment with DMSO (control) or EX33 using TissueQuest Software (see FIG. 5).

NSCLC cell line H2086 = assay: EMT induction (Vimentin immune blotting) with TGF-β under hypoxia; type: cell-based; conditions: H2086 cells, 20 ng/ml TGF-β, 1% O2, 5 days, 1 μM compound
Procedure: EMT induction was evaluated by quantification of the EMT marker Vimentin. NSCLC H2086 cells were treated with 20 ng/ml TGF-β under hypoxic conditions (1% O2) for 5 days. The effect on Vimentin was evaluated by immune blotting for cells treated with Vehicle (DMSO), 1 μM EX33 or 1 μM EX34, and the results are shown in FIG. 7. Glyceraldehyde-3-phosphate dehydrogenase (GAPDH) was used as loading control. The band intensity of Vimentin has been related to the intensity of the GAPDH band.
NSCLC H2086 cells were treated with 20 ng/ml TGF-β under hypoxic conditions (1% O2) for 5 days to induce EMT. The ability of EX33 and EX34 to prevent EMT was evaluated by quantification of the EMT marker Vimentin. The effect on Vimentin was evaluated by immune blotting for cells treated with Vehicle (DMSO), 1 μM EX33 or 1 μM EX34. GAPDH was used as loading control. The band intensity of Vimentin has been related to the intensity of the GAPDH band.

[3] = tested on: hepatic stellate cell line LX2; assay: α-sma protein and mRNA levels in activated hepatic stellate cells; type: cell-based, human
Procedure: LX2 cells were treated for 72 hours with the indicated dosages of EX33 (μM). Cell lysates were analyzed by immune blotting for alpha-smooth muscle actin (α-SMA), PCNA and total p-Akt. Actin was used as a loading control.
LX2 cells were treated for 24 hours with the indicated dosages of EX33 (μM). mRNA was isolated and analyzed by RT-PCR for α-SMA expression. Expression level in Vehicle treated cells (0 EX33) was set to 1, and α-sma expression levels following treatment with indicated dosages of EX33 calculated relative to that.
Liver fibrosis is characterized by accumulation of extracellular matrix components such as alpha-smooth muscle actin (α-sma) mainly derived from activated hepatic stellate cells (HSCs).
The role of AKT3 in liver fibrosis was analyzed by studying the efficacy of EX33 to block HSC activation. The human activated hepatic stellate cell line LX2 was treated with different dosages of EX33 and the effects on α-sma protein and mRNA levels were analysed by immune blotting (see FIG. 9) and RT-PCR (see FIG. 10) respectively.

[4] = tested on: pAkt1, pAkt2 and pAkt3 in MCF10DCIS xenograft tumours; assay: Akt phosphorylation in MCF10DCIS xenograft tumours (SureFire); type: in vivo, mice; conditions: 25 mg/kg oral gavage once a day for 2, 4 or 6 days; pAkt1, pAkt2, pAkt3 measured
Procedure: Mice carrying MCF10DCIS xenograft tumours were treated with Vehicle or EX33 at 25 mg/kg once a day for 2, 4 or 6 days. Tumours were harvested and analyzed by SureFire assay for levels of pAkt1, pAkt2 and pAkt3. Average±SEM are shown, n=4.
Nude mice were injected subcutaneously with MCF10DCIS cells. When the average tumour size reached 440 mm^3, EX33 was administered at 25 mg/kg for 2, 4 or 6 days. EX33 was given by oral gavage once a day. Tumours were harvested and analyzed by SureFire assay for levels of pAkt1, pAkt2 and pAkt3. Average±SEM are shown, n=4.

HMLER-Akt3 cells = assay: HMLER-Akt3 tumour seeding xenograft model; type: in vivo, NSG mice; conditions: for tumour initiation: 100 mg/kg once a day from day of implantation; for Tumour incidence (tumours formed/total number of implantations): 100 mg/kg once a day, after 2 weeks, tumours exceeding 20 mm^3
Procedure: HMLER cells are not very tumourigenic. However, after enforced expression of Akt3, these cells are able to initiate tumours.
Mice implanted with 10^5 or 10^6 HMLER-Akt3 cells were treated with vehicle, EX34 or EX33 at 100 mg/kg once a day. Treatment was initiated on the day of tumour cell implantation. A total of 10 tumours were implanted for each treatment condition. Tumour incidence was evaluated after 2 weeks and tumour size cut of was set at 20 mm^3. Significance determined by unpaired Student two-tailed t test.
The numbers are given as tumours formed/total number of implantations. Significance was determined by unpaired two-tailed Student t-test. Ns: not significant.

MDA-MB-468 cells = assay: TNBC MDA-MB-468 subcutaneous xenograft model; type: in vivo, NSG mice; conditions: 50 mg/kg b.i.d. oral gavage, 5-days on 2-days off, 19 days
Procedure: Tumour volumes of mice treated with vehicle or EX33 (50 mg/kg b.i.d.) were measured by caliper twice a week, over the course of 19 days. Data is given as Mean±SEM, n=6-10. Statistical analysis was performed by an unpaired two-tailed Student t test.
The MDA-MB-468 model has previously been reported in the literature to be dependent upon Akt3 for xenograft tumour growth (Chin et al., Cancer Res 2014).
NSG mice were injected subcutaneously with MDA-MB-468 cells, and the effect on tumour growth of EX33 was evaluated. EX33 was administered at 50 mg/kg, and was given by oral gavage twice a day in a 5-days on and 2-days off cycle. Tumour growth was monitored by caliper measurements twice a week.
Data are given as Mean±SEM, n=6-10. Statistical analysis was performed by unpaired two-tailed Student t test.

[5] = tested on: MBBR3A human melanoma cancer cell line; assay: MBBR3A human melanoma sub-cutaneous xenograft model; type: in vivo, Nude mice; conditions: 50 mg/kg b.i.d. oral gavage, 5-days on 2-days off, 15 days
Procedure: Tumour volumes of mice treated with vehicle or EX33 (50 mg/kg b.i.d.) were measured by caliper twice a week, over the course of 15 days. Data is given as Mean±SEM, n=10-12. Statistical analysis was performed by an unpaired two-tailed Student t test.
Nude mice were injected subcutaneously with MBBR3A cells, and the effect on tumour growth of EX33 was evaluated. EX33 was administered at 50 mg/kg EX33 given by oral gavage twice a day in a 5-days on and 2-days off cycle. Tumour growth was monitored by caliper measurements twice a week.
Data are given as Mean±SEM, n=10-12. Statistical analysis was performed by unpaired two-tailed Student t test.

NSCLC cell line H2073 = assay: Cell viability with paclitaxel (resazurin reduction) in paclitaxel-resistant cells; type: cell-based; conditions: paclitaxel with or without compound, 72 hours
Procedure: Cell viability was evaluated using resazurin reduction. Average±SEM are shown, n=3.
The NSCLC cell line H2073 was established from a patient that was resistant to treatment with paclitaxel.
H2073 cells were treated with increasing dosages of paclitaxel in the absence or presence of EX34 for 72 hours, and cell viability was evaluated using resazurin reduction. Average±SEM are shown, n=3.

[6] = 10^5 HMLER-Akt3 cells implanted
[7] = 10^6 HMLER-Akt3 cells implanted

Structure (SMILES) | 3D tumour cell growth (average tumour sphere size) [1] | invasive 3D tumour cell growth [2] | nuclear localization of Akt3 (Akt3 in MDA-MB-231 cells) | EMT induction (EMT marker Vimentin) (NSCLC cell line H2086) | α-sma mRNA level ([3]; 24 hours, RT-PCR) | α-sma protein level ([3]; 72 hours, immune blotting) | level of Akt3 phosphorylation in xenograft tumours [4] | tumour initiation (HMLER-Akt3 cells) | Tumour incidence (tumours formed/total number of implantations) (HMLER-Akt3 cells; [6]) | Tumour incidence (tumours formed/total number of implantations) (HMLER-Akt3 cells; [7]) | primary tumour growth (tumour volume) (MDA-MB-468 cells) | primary tumour growth (tumour volume) [5] | sensitivity to paclitaxel (cell viability) (NSCLC cell line H2073)
CC(=O)N(C)[C@H]1CC[C@H](CC(=O)Nc2cc(-c3ccccc3)c(-c3ccc(C4(N)CCC4)cc3)cn2)CC1 [EX33] | dose-dependent inhibition of 3D tumour cell growth | inhibited tumour cell growth | Akt3 stains cytoplasmic | prevent EMT induction | decreases the levels of α-sma mRNA and protein | decreases the levels of α-sma mRNA and protein | selectively reduced the level of Akt3 phosphorylation | prevented tumour initiation | 0/10^<0.0001 | 0/10^<0.0001 | reduced tumour growth compared to vehicle treated mice | reduced tumour growth compared to vehicle treated mice | –
COC(=O)N(C)[C@H]1CC[C@H](CC(=O)Nc2cnc(-c3ccc(C(C)(C)N)cc3)c(-c3ccccc3)c2)CC1 [EX34] | dose-dependent inhibition of 3D tumour cell growth | inhibited tumour cell growth | prevents nuclear localization of Akt3 | prevent EMT induction | – | – | – | prevented tumour initiation | 3/10^ns | 0/10^0.0002 | – | – | sensitizes the paclitaxel resistant cell line H2073 to paclitaxel
